In doi:10.1101/2022.12.26.521971v1 (biorxiv, 2022):

Biological target: rNTSR1 (wild-type rat Neurotensin Receptor 1) (Rattus norvegicus, UniProt P20789)
Test: cell-based
Set-up: species or system HEK293T

rNTSR1 (wild-type rat Neurotensin Receptor 1), sequence (P20789 whole entry): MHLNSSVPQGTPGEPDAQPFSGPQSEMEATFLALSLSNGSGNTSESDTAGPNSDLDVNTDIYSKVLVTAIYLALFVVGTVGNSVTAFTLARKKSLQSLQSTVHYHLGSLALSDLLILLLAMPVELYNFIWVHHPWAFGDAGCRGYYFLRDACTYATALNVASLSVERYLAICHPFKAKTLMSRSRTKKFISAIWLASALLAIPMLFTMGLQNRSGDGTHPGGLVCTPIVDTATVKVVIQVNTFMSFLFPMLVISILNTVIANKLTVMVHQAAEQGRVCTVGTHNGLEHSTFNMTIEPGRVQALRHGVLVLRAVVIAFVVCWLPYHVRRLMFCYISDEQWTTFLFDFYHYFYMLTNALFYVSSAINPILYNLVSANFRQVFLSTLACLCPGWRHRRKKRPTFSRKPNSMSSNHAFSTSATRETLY

Kb: 776 nM
Compound: COc1cc2nc(C3CC3)nc(N3CCN(c4ccccc4OC)CC3)c2cc1OC [ML314]
